# Tests used:
# human TLR7 = biological target: T1, human TLR7 (Homo sapiens, UniProt Q9NYK1); test: TLR7/8-NF-κB reporter assay (HEK-TLR7, SEAP); assay type: cell-based; conditions: HEK-TLR7 cells, 24 hrs, read-out: EC50 of TLR7 (mean ± SD)
# T1 construct: host or cells: HEK (HEK293) cells with NF-kB-responsive SEAP reporter
# T1 sequence (Q9NYK1 27-1049): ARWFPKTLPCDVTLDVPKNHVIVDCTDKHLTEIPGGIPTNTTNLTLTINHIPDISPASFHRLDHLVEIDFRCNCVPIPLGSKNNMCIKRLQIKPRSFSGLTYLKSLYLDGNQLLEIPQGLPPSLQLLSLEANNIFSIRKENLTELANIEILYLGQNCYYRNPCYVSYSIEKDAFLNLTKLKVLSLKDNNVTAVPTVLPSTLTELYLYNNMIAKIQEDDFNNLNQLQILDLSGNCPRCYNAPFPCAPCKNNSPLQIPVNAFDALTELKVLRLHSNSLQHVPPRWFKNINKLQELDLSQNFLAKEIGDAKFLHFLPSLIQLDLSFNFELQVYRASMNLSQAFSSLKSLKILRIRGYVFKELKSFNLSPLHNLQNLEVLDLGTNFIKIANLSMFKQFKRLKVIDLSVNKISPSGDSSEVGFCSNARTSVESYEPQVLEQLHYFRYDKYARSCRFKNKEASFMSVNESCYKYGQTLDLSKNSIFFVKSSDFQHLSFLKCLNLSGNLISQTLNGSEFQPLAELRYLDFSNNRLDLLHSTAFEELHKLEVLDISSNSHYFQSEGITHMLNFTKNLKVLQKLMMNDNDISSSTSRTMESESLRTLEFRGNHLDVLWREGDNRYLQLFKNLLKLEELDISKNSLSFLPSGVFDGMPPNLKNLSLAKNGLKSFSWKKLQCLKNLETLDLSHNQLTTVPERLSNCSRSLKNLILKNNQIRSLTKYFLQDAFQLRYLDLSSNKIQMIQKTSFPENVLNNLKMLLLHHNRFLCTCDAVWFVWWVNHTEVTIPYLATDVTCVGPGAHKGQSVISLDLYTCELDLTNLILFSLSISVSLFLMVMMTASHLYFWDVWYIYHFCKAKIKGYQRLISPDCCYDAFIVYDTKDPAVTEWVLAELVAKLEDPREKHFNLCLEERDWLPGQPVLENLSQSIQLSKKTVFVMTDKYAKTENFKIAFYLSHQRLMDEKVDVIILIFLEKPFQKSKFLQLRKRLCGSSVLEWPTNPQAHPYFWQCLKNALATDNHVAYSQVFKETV
# Description: Human embryonic kidney (HEK) cells that were stably transfected with human TLR7 or TLR8 and an NF-κB—responsive secreted embryonic alkaline phosphatase (SEAP) gene (HEK-TLR7/8) were purchased from InvivoGen (San Diego, Calif.). The procedure used to measure TLR7 or TLR8 agonist activity was conducted as described by Hood et al. (Hood J. D, et al., Human Vaccines, 2010, 6, 4, 322-335). Briefly, HEK-TLR7/8 cells were stimulated with 3.3 or 30 μM of compound in a 96-well plate in DMEM containing 10% FBS and 0.01% Normocin (InvivoGen) for 24 hrs. Twenty microliters of the supernatant from each well was incubated with Quanti-blue substrate solution (InvivoGen) at 37° C. for 1 hour and absorbance was read at 650 nm using a Synergy plate reader (Biotek, Winooski, Vt.).
# [1] = tested on: human monocyte-derived dendritic cells (MoDC); test: Human MoDC immunostaining and flow cytometric analysis (maturation, DC phenotype); assay type: cell-based
# Description: 1. Dendritic cells were generated from peripheral blood monocytes as described (Brossart P, et al. Blood. 1998; 92: 4238-4247). In brief, CD14 positive monocytes were from a healthy human peripheral blood mononuclear cells (PBMC) obtained via isolation with Lymphocyte Separation Medium (Mediatech, Inc, Manassas, Va.) and after purification with CD14 microbeads from Miltenyi Biotec Inc (Aubun, Calif.). The CD14 positive monocytes (>95% CD14) were cultured into immature monocyte-derived dendritic cells (MoDC) by further 6 day culture with GM-CSF (100 ng/ml) and IL-4 (100 ng/ml)(R&D, MN). 2. 0.1 million of MoDC were plated into 96-well plate and stimulated for 48 hours with 5 different concentration of following TLRs: 412, 420, 421, 414 and 415 at concentration of 0, 0.325, 1.3, 5.2 and 20.8 nmol/ml in triplicate. In other experiments (FIGS. 34 and 35), fresh PBMC (not DC) were used as the responder cells to the indicated compounds and cytokines levels were measured by bead array according to the manufacture's protocol (BD biosciences).
# 48 hours after stimulation, the cells were stained with anti-HLA-DR, CD11c, CD-86, CD80, CD83, CD8a, CD123 and relevant isotype control (eBioscience, San Diego, Calif.). The cells were loaded on FACS-canto II and analyzed with FACSDiva and Flowjo
compound,measurement,setting,value
"CCCCc1nc2c(N)nc3cc(C(=O)OC)ccc3c2n1CC(C)(C)O [Compound 420, 4-Amino-2-butyl-1-(2-hydroxy-2-methylpropyl)-7-methoxycarbonyl-1H-imidazo[4,5-c]quinoline]",EC50,human TLR7,1520 ± 70 nM
same,differentiation of myeloid DC into CD123+ plasmacytoid DC,[1]; human MoDC (FIG. 4),did not
same,MoDC maturation (raising CD86 co-stimulator level and CD83),"[1]; human MoDC, 48 hours after stimulation",same efficiency as Resiquimod and significantly stronger than imiquimod

# Source: patent US9034336B2, “Immunomodulators and immunomodulator conjugates” (Regents of the University of Minnesota, priority 2011, dated 2015)
